Among the data in US5250537A, “5,6,7,8,9,10-hexahydro-7 ,10-iminocyclohept[b]indole,-6,7,8,9,10-hexahydro-7,11-imino-5H-cyclooct[ b]indole and substituted derivatives” (Scios Nova Inc., priority 1992, dated 1993) are IC50, Ki and inhibition values, retold here.

The target of experiment [1] is sigma receptor ([3H]DTG site). The experiment in a line: In Vitro Sigma Receptor Binding, [3H]DTG. As to conditions: guinea pig brain; 45 minutes at 25° C. On the procedure: (§1) For both assays frozen guinea pig brains (PelFreez Biologicals, Rogers, AK) were thawed and homogenized in 10 volumes (w/v) of ice cold 0.32M sucrose using 10 strokes of a motor-drivenglass-fitted teflon pestle adjusted to 600 rpm. The homogenate was centrifuged (4° C.) at 900× g for 10 minutes and the resultant supernatant collected and centrifuged at 22,000×g for 20 minutes. The pellet obtained from the centrifugation was resuspended in 10 volumes of 50 mM Tris HCl (pH 7.4, 25° C.) and incubated for 30 minutes at 37° C. Following the preincubation, the homogenate was centrifuted at 22,000×g for 20 minutes and the final pellet was resuspended in buffer to a protein concentration of 0.5-1.0 mg/mL for use in the assay.
(§2) Binding reactions were initiated by the addition of tissue (800 μL) to tubes containing assay buffer, the radioligand (final concentration 1-3 nM) and the compound of interest. Haloperidol (10 μM) and (+)-3-PPP (10 μM) were used to determine the levels of […] [^3 H]DTG and [^3 H](+)PPP binding, respectively. Final assay volume was 1 mL. Reactions were allowed to proceed for 45 minutes at 25° C. and terminated by rapid filtration over Whatman GF/B filters which were washed 3 times with 5 mL of cold buffer. Radioactivity trapped on the filters was determined using routine methods. […] All assays were performed using triplicate determinations. For comparison purposes, IC50 values are reported rather than Ki values.

Experiment [2] deals with T1, sigma receptor ([3H](+)-3-PPP site) (Cavia porcellus, UniProt Q60492).
T1 construct: frozen guinea pig brains; tissue PelFreez Biologicals, Rogers, AK; host or cells: guinea pig brain membranes
The experiment in a line: In Vitro Sigma Receptor Binding, [3H](+)-3-PPP. Also noted: species or system guinea pig. The note with it: guinea pig brain; 45 minutes at 25° C.; read-out: Sigma [3H](+)-3-PPP binding IC50. As to the method:
as §1, §2

The target of the next experiment is T2, dopamine (D-2) receptors (Rattus norvegicus, UniProt P61169).
T2 construct: the corpus striatum was dissected and homogenized; from tissue; host or cells: rat corpus striatum membranes
The experiment in a line: In Vitro Dopamine (D-2) Receptor Binding, [3H]sulpiride. As to the method: On the day of assay, rats were sacrificed by decapitation, the corpus striatum was dissected and homogenized in 20 volumes of ice-cold 50 mM Tris HCl (pH 7.5, 25° C.). The homogenate was centrifuged (4° C.) at 48,000×g for 10 minutes and the resulting pellet was resuspended in 20 volumes of fresh buffer and recentrifuged. […] A portion of the suspension (800 μL) was added in triplicate to tubes containing 3 nM [^3 H]sulpiride and the test compound. The final assay volume was 1 mL; haloperidol (10 μM) was used to determine non-specific binding. Following a 60 minute incubation at 25° C., the reactions were terminated by rapid filtration over Whatman GF/B filters which had been pretreated in a solution of 0.3% (w/v) of aqueous polyethylenimine. Filters were washed three times using 5 mL of ice-cold buffer and processed using standard procedures to determine radioactivity. IC50 values were obtained from concentration-response curves in which a number of concentrations of test compound were examined. Ki values were determined using the Cheng-Prusoff equation.

The target in experiment [3] is T3, serotonin 5-HT2 receptors (Rattus norvegicus, UniProt P14842).
T3 construct: Rat cortical synaptosomal membranes were prepared on the day of assay; from tissue; host or cells: rat frontal cortex synaptosomal membranes
Put plainly: In Vitro Serotonin (5-HT2) Receptor Binding, [3H]ketanserin. The note with it: for Ki: rat cortical membranes, 1 nM [3H]ketanserin. As to the method:
The potency of compounds to inhibit the specific binding of [^3 H]ketanserin (84.2 Ci/mM) to serotonin 5-HT2 receptors was determined as detailed previously [J. E. Leysen, C. J. E. Niemegers, J. M. Van Neuten and P. M. Laduron, Mol. Pharmacol., 21, 301-314 (1982)]. Rat cortical synaptosomal membranes were prepared on the day of assay. Animals were sacrified by decapitation, the frontal cortex was removed and homogenized in 10 volumes (w/v) of ice-cold 0.32M sucrose using a motor driven teflon pestle fitted to a glass tube. The synaptosomal pellet was suspended in 50 mM Tris HCl (pH 7.6 at 25° C.) to a concentration of 7.5 mg original wet weight/mL. For the binding reaction, 400 μL of this tissue suspension was added to polypropylene tubes containing 50 mM Tris HCl and [^3 H]ketanserin (final concentration of 1 nM) in a final assay volume of 0.5 mL. Following a 15 minute incubation at 37° C., the binding reaction was terminated by rapid vacuum filtration over Whatman GF/B filters (presoaked in 0.1% PEI) followed by 3×4 mL washes with ice cold 50 mM Tris HCl. Nonspecific binding was assessed in the presence of 10 μM methysergide. All incubations were performed in triplicate. IC50 values were determined using log logit analysis.

Where [4] appears, read: rat corpus striatum, 3 nM [3H]sulpiride, read-out: Dopamine D-2 [3H]sulpiride Ki.
[5] abbreviates: read-out: Serotonin 5-HT2 [3H]ketanserin, % @ 1 μM.

Read-outs that look alike come from different tables or passages of the source. Where only a bound is given, the exact number is not on record here.

T2 sequence (P61169 whole entry): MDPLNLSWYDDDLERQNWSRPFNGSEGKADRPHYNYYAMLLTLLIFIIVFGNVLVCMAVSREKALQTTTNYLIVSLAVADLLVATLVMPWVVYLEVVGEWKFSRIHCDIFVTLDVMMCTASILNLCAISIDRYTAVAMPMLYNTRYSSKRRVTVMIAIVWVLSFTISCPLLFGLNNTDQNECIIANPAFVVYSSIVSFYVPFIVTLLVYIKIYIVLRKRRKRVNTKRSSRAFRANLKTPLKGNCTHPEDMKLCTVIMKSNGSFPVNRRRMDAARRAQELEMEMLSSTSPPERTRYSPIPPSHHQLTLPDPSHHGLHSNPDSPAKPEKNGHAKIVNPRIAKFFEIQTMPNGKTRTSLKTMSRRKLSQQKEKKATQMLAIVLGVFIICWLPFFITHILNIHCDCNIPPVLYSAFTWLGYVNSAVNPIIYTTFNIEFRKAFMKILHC
T1 sequence (Q60492 whole entry): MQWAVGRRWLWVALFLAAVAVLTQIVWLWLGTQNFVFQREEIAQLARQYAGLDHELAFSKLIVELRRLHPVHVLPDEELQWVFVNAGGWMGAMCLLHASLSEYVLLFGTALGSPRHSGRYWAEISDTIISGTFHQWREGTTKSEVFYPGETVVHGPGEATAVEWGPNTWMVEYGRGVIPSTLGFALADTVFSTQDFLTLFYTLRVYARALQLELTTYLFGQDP
T3 sequence (P14842 whole entry): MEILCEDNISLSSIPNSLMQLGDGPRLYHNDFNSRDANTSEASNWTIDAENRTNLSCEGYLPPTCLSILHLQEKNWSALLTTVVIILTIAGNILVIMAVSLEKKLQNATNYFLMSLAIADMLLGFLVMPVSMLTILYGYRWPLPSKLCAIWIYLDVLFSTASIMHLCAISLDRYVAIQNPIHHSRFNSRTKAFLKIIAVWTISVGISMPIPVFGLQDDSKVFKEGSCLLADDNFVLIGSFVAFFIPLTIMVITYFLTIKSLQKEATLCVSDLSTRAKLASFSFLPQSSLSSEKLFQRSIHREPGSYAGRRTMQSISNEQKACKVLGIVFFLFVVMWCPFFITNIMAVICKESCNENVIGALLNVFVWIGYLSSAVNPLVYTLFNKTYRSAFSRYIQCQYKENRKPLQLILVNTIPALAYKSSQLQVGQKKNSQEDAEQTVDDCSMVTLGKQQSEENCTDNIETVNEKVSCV

`O=C(COc1ccc(Cl)c(Cl)c1)N1C2CCC1c1c([nH]c3ccccc13)C2` (centres unmarked) [7 H H COCH2 O-3,4-Cl2 Ph 2]: the IC50 in experiment [1] and in experiment [2] was more than 10000 nM throughout. The inhibition constant Ki (as a rule, a dissociation constant, usually derived from enzyme kinetics or from competition with a known ligand) at dopamine (D-2) receptors (setting [4]) stood at 64500 nM. In experiment [3] (setting [5]), the inhibition at 1 µM turned out to be 24.7%.
For `CC(CCc1ccccc1)N1C2CCC1c1c([nH]c3ccccc13)C2` (single isomer, unassigned) [1 (low Rf) H H CH(CH3)(CH2)2 Ph 2], the figures for the IC50 in experiment [1] and in experiment [2] were 119 nM and 1160 nM, respectively. Besides, the Ki on dopamine (D-2) receptors (setting [4]) is 530 nM. Besides, the inhibition at 1 µM in experiment [3] (setting [5]) was determined as 72.8%.
Take `Fc1ccc2[nH]c3c(c2c1)C1CCCC(C3)N1CCCCc1ccccc1` (centres unmarked) [12 F H (CH2)4 Ph 3]: the IC50 (as a rule, the concentration at which inhibition is half-maximal) came out at 42 nM in experiment [1] and 117 nM in experiment [2]. The Ki came to 1870 nM on dopamine (D-2) receptors (setting [4]) and 172 nM in experiment [3].
Turning to `Clc1ccc(OCCN2C3CCC2c2c([nH]c4ccccc24)C3)cc1` (centres unmarked) [1 H H (CH2)2 O-4-ClPh 2], the IC50 in experiment [1] was found to be 268 ± 38 nM; in experiment [2], 5980 ± 3510 nM. Further, the Ki on dopamine (D-2) receptors (setting [4]) was 530 nM; in experiment [3] it was 377 nM.
As to `Fc1ccc2[nH]c3c(c2c1)C1CCC(C3)N1Cc1ccccc1` (centres unmarked) [4 F H CH2 Ph 2], the IC50 came to 86 ± 14 nM in experiment [1] and 908 ± 222 nM in experiment [2]. In addition, the Ki at dopamine (D-2) receptors (setting [4]) was 3740 nM. In addition, the inhibition at 1 µM in experiment [3] (setting [5]) came out at 3.3%.
As for `c1ccc(OCCCCN2C3CCC2c2c([nH]c4ccccc24)C3)cc1` (centres unmarked) [1 H H (CH2)4 OPh 2], the figures for the half-inhibitory concentration (IC50) in experiment [1] and in experiment [2] were 88 ± 15 nM and 205 nM, respectively. Moreover, the Ki at dopamine (D-2) receptors (setting [4]) stood at 100 nM; in experiment [3], 48 nM.
With `O=C(CCCN1C2CCCC1c1c([nH]c3ccc(F)cc13)C2)c1ccc(F)cc1` (centres unmarked) [12 F H (CH2)3 CO 4-FPh 3], the IC50 in experiment [1] came out at 23 nM; in experiment [2], 103 nM. Also, the Ki on dopamine (D-2) receptors (read-out: Dopamine D-2 [3H]sulpiride Ki) is 200 nM; in experiment [3], 2.5 nM.
As for `c1ccc(CCCCCN2C3CCC2c2c([nH]c4ccccc24)C3)cc1` (centres unmarked) [1 H H (CH2)5 Ph 2], the IC50 in experiment [1] worked out at 107 ± 59 nM; in experiment [2], 348 ± 70 nM. The Ki turned out to be 680 ± 230 nM on dopamine (D-2) receptors (setting [4]) and 42.5 nM in experiment [3].
With `O=C1c2ccccc2C(=O)N1CCCN1C2CCC1c1c([nH]c3ccc(F)cc13)C2` (centres unmarked) [6 F H (CH2)3 2-phthalimido 2], the IC50 stood at 836 nM in experiment [1] and 3330 ± 1810 nM in experiment [2]. In addition, the Ki at dopamine (D-2) receptors (setting [4]) was determined as 12300 ± 1700 nM. Further, in experiment [3] (read-out: Serotonin 5-HT2 [3H]ketanserin, value @ 1 μM), the inhibition at 1 µM was 4.9%.
With `c1ccc(OCCCN2C3CCC2c2c([nH]c4ccccc24)C3)cc1` (centres unmarked) [1 H H (CH2)3 OPh 2], the concentration for half-maximal inhibition (IC50) in experiment [1] worked out at 132 ± 16 nM; in experiment [2] it was 262 ± 19 nM. Moreover, the Ki is 1270 ± 260 nM at dopamine (D-2) receptors (setting [4]) and 22.9 nM in experiment [3].
In the case of `CC(CCc1ccccc1)N1C2CCC1c1c([nH]c3ccccc13)C2` (single isomer, unassigned) [1 (high Rf) H H CH(CH3)(CH2)2 Ph 2], the IC50 in experiment [1] was 23 nM; in experiment [2] it was 1500 nM. The Ki at dopamine (D-2) receptors (setting [4]) was 1110 nM.
As for `O=C(CCCCN1C2CCC1c1c([nH]c3ccccc13)C2)c1ccc(F)cc1` (centres unmarked) [1 H H (CH2)4 CO 4-FPh 2], the IC50 was 131 nM in experiment [1] and 224 nM in experiment [2]. The same molecule had a Ki on dopamine (D-2) receptors (Dopamine D-2 [3H]sulpiride Ki, rat corpus striatum, 3 nM [3H]sulpiride) of 3.5 nM.
Consider `c1ccc2c3c([nH]c2c1)CC1CCC3N1` (centres unmarked) [1 H H -- H 2], for which the half-maximal inhibitory concentration (IC50) in experiment [2] amounted to 2180 nM. Also, on dopamine (D-2) receptors (setting [4]), the Ki was found to be 100000 nM. Moreover, the inhibition at 1 µM in experiment [3] (setting [5]) is 0.2%.
Consider `Fc1ccc2[nH]c3c(c2c1)C1CCC(C3)N1` (centres unmarked) [4 F H -- H 2], for which the Ki at dopamine (D-2) receptors (setting [4]) stood at 36600 nM. Moreover, the inhibition at 1 µM in experiment [3] (setting [5]) turned out to be 28.2%.
On to `O=C(CCCN1C2CCC1c1c([nH]c3ccc(F)cc13)C2)c1ccc(F)cc1` (centres unmarked) [4 F H (CH2)3 CO 4-FPh 2], for which the IC50 in experiment [1] is 55 nM; in experiment [2] it was 408 nM. Also, the affinity in experiment [3] corresponds to a Ki of 2.07 nM.
For the molecule `c1ccc(CCN2C3CCC2c2c([nH]c4ccccc24)C3)cc1` (centres unmarked) [1 H H (CH2)2 Ph 2], at dopamine (D-2) receptors (setting [4]), the Ki turned out to be 840 nM. The inhibition at 1 µM in experiment [3] (setting [5]) came out at 8.8%.
